Test results taken from PMC8406298, “Discovery of Fungus-Specific Targets and Inhibitors Using Chemical Phenotyping of Pathogenic Spore Germination” (mBio, 2021).

Columns and labels:
[1] = test system: normal human dermal fibroblasts (NHDF) cells; assay: Fibroblast cytotoxicity (CellTiter-Glo); assay type: cell-based; settings: 10 µM
In short: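 Normal human dermal fibroblasts, 1 × 10^3 per well, exposed to compounds at 10 μM for 72 h at 37°C. Viability read as ATP-dependent CellTiter-Glo luminescence. Dose-response runs titrated compounds from 80 μM to 0.5 μM in duplicate.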

[2] = test system: Cryptococcus yeast (CHY3833 and CHY3836); assay: Yeast replication secondary screen (OD600); assay type: cell-based, Cryptococcus neoformans serotype D (deneoformans); settings: 10 μM, 12 h at 30°C
Method: (ii) Yeast replication. CHY3833 and CHY3836 were each grown in YPD liquid overnight at 30°C to saturation and then resuspended in 0.5× YPD at an OD600 of 0.005. Strains were aliquoted into 384-well plates with inhibitors and grown for 12 h at 30°C at […] before OD600 readings were taken. Compounds that caused a >10% decrease in growth were considered yeast growth inhibitors.

Structure (SMILES)	Cytotoxicity: Relative Cell Viability (% of Negative Control) [1]	Yeast Inhibition: % Inhibition [2]
Nc1cc(Cl)c([N+](=O)[O-])cc1OCc1ccccc1 [compound 3521356]	102.1 % of Negative Control	52.3%
NC(=O)c1ccsc1NC(=O)c1ccc(Cl)cc1Cl [compound 7167022]	83.5 % of Negative Control	52.4%
Cc1cc(C)c(S(=O)(=O)Nc2nc(C(F)(F)F)cs2)c(C)c1 [compound 4413055]	49.5 % of Negative Control	9.5%
CN(C)c1ccc(NC(=O)/C=C/c2ccccc2Cl)cc1 [compound 723732]	79.8 % of Negative Control	27.8%
O=S(=O)(Nc1nc2c(Cl)cccc2s1)c1ccc(Cl)s1 [compound 16934160]	75.3 % of Negative Control	-6.1%
O=C(Nc1ccc2sccc2c1)c1ccc([N+](=O)[O-])s1 [compound 3629287]	19.4 % of Negative Control	97.9%
Cc1cc(C)c2sc(NN)nc2c1 [compound 2049855]	38.9 % of Negative Control	100.6%
Cc1c(-n2c(-c3ccccc3)csc2=NC(=O)c2ccccc2)c(=O)n(-c2ccccc2)n1C [compound 1528700]	93.1 % of Negative Control	-8.8%
CCOC(=O)c1ccc(N2C(=O)CC(SCC(=O)Nc3ccc(S(N)(=O)=O)cc3)C2=O)cc1 (stereo not drawn) [compound 16187117]	118.0 % of Negative Control	83.7%
CCCc1cc(C(=O)OC)c(N2C(=O)C=CC2=O)s1 [compound 7456205]	4.1 % of Negative Control	101.6%
Cc1ccc(N2C(=O)C=CC2=O)c([N+](=O)[O-])c1 [compound 2834581]	4.3 % of Negative Control	101.2%
Nc1nc(-c2ccc(Oc3ccccc3)cc2)cs1 [compound 780598]	97.5 % of Negative Control	81.0%
Oc1ccc(C2(c3cccc(Cl)c3)CCCC2)cc1 [compound 767639]	96.2 % of Negative Control	74.0%
C=C(C)Cn1c(Cc2ccc(OC)cc2)nc2ccccc21 [compound 962333]	73.9 % of Negative Control	53.4%
Cc1ccc(-c2nnc(Cn3cnc4ccccc43)o2)cc1 [compound 16456942]	69.7 % of Negative Control	57.7%
O=S(=O)(Nc1ccc(Br)cc1F)c1ccc(Cl)c(C(F)(F)F)c1 [compound 1307471]	98.7 % of Negative Control	59.9%
O=C(C1COc2ccccc2O1)N1CCN(c2nc3c(F)cccc3s2)CC1 (stereo not drawn) [compound 16032794]	115.2 % of Negative Control	5.2%
Cc1ccc(CN2C(=O)C=CC2=O)cc1 [compound 302279]	3.1 % of Negative Control	101.5%
O=Cc1sc(=O)n(-c2ccccc2)c1Cl [compound 2793380]	5.7 % of Negative Control	78.0%
CC(C)(C)NCC(O)COc1ccc(C23CC4CC(CC(C4)C2)C3)cc1 (stereo not drawn) [compound 2769740]	2.7 % of Negative Control	101.5%
CCCOc1ccc(CSc2nc3ccccc3[nH]2)cc1 [compound 1653621]	75.1 % of Negative Control	77.4%
